# From ChEMBL document CHEMBL3526128, “Covalent modification and time-dependent inhibition of human CYP2E1 by the meta-isomer of acetaminophen” (Drug Metab Dispos, 2012)
# pKi: −log10 of the molar value.
# Columns and labels:
# Type in all cases: ADME
# [1] = target: T1, CYP2E1 (Homo sapiens, UniProt P05181); test: (§1) Inhibition of human CYP2E1 assessed as chlorzoxazone 6-hydroxylase activity by HPLC analysis; settings: human, probe chlorzoxazone (6-hydroxylation)
# [2] = target: T2, Cytochrome P450 2E1 (Homo sapiens, UniProt P05181); test: as §1
# [3] = target: T1, CYP2E1; test: Inhibition of human CYP2E1 assessed as chlorzoxazone 6-hydroxylase activity at 20 mM after 72 hrs preincubation by HPLC analysis in presence of 1 mM NADPH and 5 mM glutathione (RVb = 100%); set-up: scale not given: the % may be the effect or the level left; settings: probe chlorzoxazone (6-hydroxylation), read-out: Activity
# [4] = target: T2, Cytochrome P450 2E1; test: Inhibition of human CYP2E1-mediated chlorzoxazone hydroxylase activity at 2.5 to 40 mM by LC-MS/MS analysis; settings: recombinant enzyme, 40000 µM, TDE = time-dependent effect
# [5] = target: T1, CYP2E1; test: Inhibition of human CYP2E1 assessed as chlorzoxazone 6-hydroxylase activity at 20 mM after 72 hrs preincubation by HPLC analysis (RVb = 100%); set-up: scale not given: the % may be the effect or the level left; settings: probe chlorzoxazone (6-hydroxylation), read-out: Activity
# [6] = target: T1, CYP2E1; test: Inhibition of human CYP2E1 assessed as chlorzoxazone 6-hydroxylase activity at 2.5 mM after 72 hrs preincubation by HPLC analysis (RVb = 100%); set-up: scale not given: the % may be the effect or the level left; settings: probe chlorzoxazone (6-hydroxylation), read-out: Activity
# [7] = target: T1, CYP2E1; test: Inhibition of human CYP2E1 assessed as chlorzoxazone 6-hydroxylase activity at 20 mM after 72 hrs preincubation by HPLC analysis in presence of 1 mM NADPH (RVb = 100%); set-up: scale not given: the % may be the effect or the level left; settings: probe chlorzoxazone (6-hydroxylation), read-out: Activity
# [8] = target: T1, CYP2E1; test: Inhibition of human CYP2E1 assessed as chlorzoxazone 6-hydroxylase activity at 40 mM after 72 hrs preincubation by HPLC analysis in presence of 1 mM NADPH (RVb = 100%); set-up: scale not given: the % may be the effect or the level left; settings: probe chlorzoxazone (6-hydroxylation), read-out: Activity
# [9] = target: T2, Cytochrome P450 2E1; test: Inhibition of human CYP2E1-mediated chlorzoxazone hydroxylase activity at 2.5 to 40 mM after 72 hrs by LC-MS/MS analysis in presence of 1 mM NADPH; settings: recombinant enzyme, 40000 µM
# [10] = target: T1, CYP2E1; test: Inhibition of human CYP2E1 assessed as chlorzoxazone 6-hydroxylase activity at 40 mM after 72 hrs preincubation by HPLC analysis (RVb = 100%); set-up: scale not given: the % may be the effect or the level left; settings: probe chlorzoxazone (6-hydroxylation), read-out: Activity
# T2 sequence (P05181 whole entry): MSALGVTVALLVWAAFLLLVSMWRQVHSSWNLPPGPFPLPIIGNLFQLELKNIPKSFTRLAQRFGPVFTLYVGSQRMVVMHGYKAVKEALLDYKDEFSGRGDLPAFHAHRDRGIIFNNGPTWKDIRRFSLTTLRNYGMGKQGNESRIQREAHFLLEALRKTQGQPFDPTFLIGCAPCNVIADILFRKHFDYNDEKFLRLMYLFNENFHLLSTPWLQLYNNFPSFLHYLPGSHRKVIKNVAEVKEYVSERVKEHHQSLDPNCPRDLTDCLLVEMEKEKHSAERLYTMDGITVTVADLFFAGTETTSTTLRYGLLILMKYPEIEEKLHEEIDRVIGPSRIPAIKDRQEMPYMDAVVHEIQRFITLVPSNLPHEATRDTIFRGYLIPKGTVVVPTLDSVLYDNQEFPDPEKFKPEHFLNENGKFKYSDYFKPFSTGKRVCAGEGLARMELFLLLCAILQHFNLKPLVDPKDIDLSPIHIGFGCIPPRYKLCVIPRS
# T1 sequence (P05181 whole entry): as above
kinact [1] [s⁻¹],pKi [2],"activity at 72 h, 20000 µM [3] [%]",inhibition (INH) [4],"activity at 72 h, 20000 µM [5] [%]","activity at 72 h, 2500 µM [6] [%]","activity at 72 h, 20000 µM [7] [%]","activity at 72 h, 40000 µM [8] [%]",inhibition (INH) [9],"activity at 72 h, 40000 µM [10] [%]",Structure (SMILES)
0.000133,2.02,91.3,tde,89.3,97.6,64.8,43.7,Active,65.7,CC(=O)Nc1cccc(O)c1 [METACETAMOL]
,,,,,< 1,,,,,Nn1nnc2ccccc21
